# Results as given in the supplement of paper PMC10307832.
# Experiments:
# Test in all cases: relative viability (nuclei count vs DMSO), 5 days (fraction); higher = more cells survive
# CAL-12T = system: CAL-12T
# Procedure, shortened: (§1)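 Each reported value is a median over duplicate plates. It expresses relative viability: treated-well nuclei count divided by vehicle-well nuclei count. Lung cancer cell lines in 1536-well plates were dosed by pin tool a day after seeding, alone with one drug or with a fixed anchor-drug dose plus five library-drug doses (not always all listed) in √10 steps, and nuclei were counted after 5 days.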
# COR-L 105 = system: COR-L 105
# Procedure, shortened: as §1
# H3255 = system: H3255
# Procedure, shortened: as §1
# HARA = system: HARA
# Procedure, shortened: as §1
# HCC-15 = system: HCC-15
# Procedure, shortened: as §1
# HCC-366 = system: HCC-366
# Procedure, shortened: as §1
# LC-2-ad = system: LC-2-ad
# Procedure, shortened: as §1
# LU99A = system: LU99A
# Procedure, shortened: as §1
# NCI-H1395 = system: NCI-H1395
# Procedure, shortened: as §1
# NCI-H1666 = system: NCI-H1666
# Procedure, shortened: as §1
# NCI-H1734 = system: NCI-H1734
# Procedure, shortened: as §1
# NCI-H1944 = system: NCI-H1944
# Procedure, shortened: as §1
# NCI-H1975 = system: NCI-H1975
# Procedure, shortened: as §1
# NCI-H1993 = system: NCI-H1993
# Procedure, shortened: as §1
# NCI-H2228 = system: NCI-H2228
# Procedure, shortened: as §1
# NCI-H3122 = system: NCI-H3122
# Procedure, shortened: as §1
# NCI-H520 = system: NCI-H520
# Procedure, shortened: as §1
# NCI-H647 = system: NCI-H647
# Procedure, shortened: as §1
# NCI-H661 = system: NCI-H661
# Procedure, shortened: as §1
# NCI-H838 = system: NCI-H838
# Procedure, shortened: as §1
# PC-14 = system: PC-14
# Procedure, shortened: as §1
# PC-3 [JPC-3] = system: PC-3 [JPC-3]
# Procedure, shortened: as §1
# SK-LU-1 = system: SK-LU-1
# Procedure, shortened: as §1
smiles,measurement,setting,value
O=c1[nH]c2ccccc2n1C1CCN(CCCC(c2ccc(F)cc2)c2ccc(F)cc2)CC1 [Pimozide] + Nc1nc2[nH]cc(CCc3ccc(C(=O)N[C@@H](CCC(=O)O)C(=O)O)cc3)c2c(=O)[nH]1 [Pemetrexed] (partner 0.2 µM),relative viability,CAL-12T; first compound 0.08 µM,1.22
same,relative viability,CAL-12T; first compound 0.253 µM,1.22
same,relative viability,CAL-12T; first compound 0.8 µM,1.14
same,relative viability,CAL-12T; first compound 2.53 µM,1.22
same,relative viability,CAL-12T; first compound 8 µM,1.11
same,relative viability,COR-L 105; first compound 0.08 µM,0.963
same,relative viability,COR-L 105; first compound 0.253 µM,1.11
same,relative viability,COR-L 105; first compound 0.8 µM,1.07
same,relative viability,COR-L 105; first compound 2.53 µM,1.2
same,relative viability,COR-L 105; first compound 8 µM,0.954
same,relative viability,H3255; first compound 0.253 µM,0.53
same,relative viability,H3255; first compound 0.8 µM,0.503
same,relative viability,H3255; first compound 2.53 µM,0.519
same,relative viability,H3255; first compound 8 µM,0.578
same,relative viability,HARA; first compound 0.08 µM,0.245
same,relative viability,HARA; first compound 0.253 µM,0.262
same,relative viability,HARA; first compound 0.8 µM,0.241
same,relative viability,HARA; first compound 2.53 µM,0.282
same,relative viability,HARA; first compound 8 µM,0.198
same,relative viability,HCC-15; first compound 0.08 µM,0.229
same,relative viability,HCC-15; first compound 0.253 µM,0.226
same,relative viability,HCC-15; first compound 0.8 µM,0.221
same,relative viability,HCC-15; first compound 2.53 µM,0.213
same,relative viability,HCC-15; first compound 8 µM,0.205
same,relative viability,HCC-366; first compound 0.08 µM,0.166
same,relative viability,HCC-366; first compound 0.253 µM,0.173
same,relative viability,HCC-366; first compound 0.8 µM,0.12
same,relative viability,HCC-366; first compound 2.53 µM,0.152
same,relative viability,HCC-366; first compound 8 µM,0.189
same,relative viability,LC-2-ad; first compound 0.08 µM,0.275
same,relative viability,LC-2-ad; first compound 0.253 µM,0.288
same,relative viability,LC-2-ad; first compound 0.8 µM,0.259
same,relative viability,LC-2-ad; first compound 2.53 µM,0.265
same,relative viability,LC-2-ad; first compound 8 µM,0.254
same,relative viability,LU99A; first compound 0.08 µM,0.277
same,relative viability,LU99A; first compound 0.8 µM,0.179
same,relative viability,LU99A; first compound 2.53 µM,0.185
same,relative viability,LU99A; first compound 8 µM,0.191
same,relative viability,NCI-H1395; first compound 0.08 µM,0.887
same,relative viability,NCI-H1395; first compound 0.253 µM,0.825
same,relative viability,NCI-H1395; first compound 0.8 µM,0.822
same,relative viability,NCI-H1395; first compound 2.53 µM,0.823
same,relative viability,NCI-H1395; first compound 8 µM,0.831
same,relative viability,NCI-H1666; first compound 0.08 µM,0.808
same,relative viability,NCI-H1666; first compound 0.253 µM,0.809
same,relative viability,NCI-H1666; first compound 0.8 µM,0.834
same,relative viability,NCI-H1666; first compound 2.53 µM,0.891
same,relative viability,NCI-H1666; first compound 8 µM,0.782
same,relative viability,NCI-H1734; first compound 0.08 µM,0.401
same,relative viability,NCI-H1734; first compound 0.253 µM,0.436
same,relative viability,NCI-H1734; first compound 0.8 µM,0.401
same,relative viability,NCI-H1734; first compound 2.53 µM,0.416
same,relative viability,NCI-H1734; first compound 8 µM,0.434
same,relative viability,NCI-H1944; first compound 0.08 µM,0.68
same,relative viability,NCI-H1944; first compound 2.53 µM,0.466
same,relative viability,NCI-H1944; first compound 8 µM,0.512
same,relative viability,NCI-H1975; first compound 0.08 µM,0.309
same,relative viability,NCI-H1975; first compound 0.253 µM,0.261
same,relative viability,NCI-H1975; first compound 0.8 µM,0.305
same,relative viability,NCI-H1975; first compound 2.53 µM,0.28
same,relative viability,NCI-H1975; first compound 8 µM,0.283
same,relative viability,NCI-H1993; first compound 0.08 µM,0.487
same,relative viability,NCI-H1993; first compound 0.253 µM,0.548
same,relative viability,NCI-H1993; first compound 0.8 µM,0.512
same,relative viability,NCI-H1993; first compound 2.53 µM,0.482
same,relative viability,NCI-H1993; first compound 8 µM,0.501
same,relative viability,NCI-H2228; first compound 0.08 µM,0.329
same,relative viability,NCI-H2228; first compound 0.253 µM,0.369
same,relative viability,NCI-H2228; first compound 0.8 µM,0.306
same,relative viability,NCI-H2228; first compound 2.53 µM,0.334
same,relative viability,NCI-H2228; first compound 8 µM,0.229
same,relative viability,NCI-H3122; first compound 0.08 µM,0.238
same,relative viability,NCI-H3122; first compound 0.253 µM,0.206
same,relative viability,NCI-H3122; first compound 0.8 µM,0.178
same,relative viability,NCI-H3122; first compound 2.53 µM,0.195
same,relative viability,NCI-H3122; first compound 8 µM,0.2
same,relative viability,NCI-H520; first compound 0.08 µM,0.651
same,relative viability,NCI-H520; first compound 0.253 µM,0.723
same,relative viability,NCI-H520; first compound 0.8 µM,0.739
same,relative viability,NCI-H520; first compound 2.53 µM,0.734
same,relative viability,NCI-H520; first compound 8 µM,0.575
same,relative viability,NCI-H647; first compound 0.08 µM,0.186
same,relative viability,NCI-H647; first compound 0.253 µM,0.188
same,relative viability,NCI-H647; first compound 0.8 µM,0.175
same,relative viability,NCI-H647; first compound 2.53 µM,0.2
same,relative viability,NCI-H647; first compound 8 µM,0.128
same,relative viability,NCI-H661; first compound 0.08 µM,0.914
same,relative viability,NCI-H661; first compound 0.253 µM,0.898
same,relative viability,NCI-H661; first compound 0.8 µM,0.844
same,relative viability,NCI-H661; first compound 2.53 µM,0.877
same,relative viability,NCI-H661; first compound 8 µM,0.797
same,relative viability,NCI-H838; first compound 0.08 µM,0.251
same,relative viability,NCI-H838; first compound 0.253 µM,0.242
same,relative viability,NCI-H838; first compound 0.8 µM,0.238
same,relative viability,NCI-H838; first compound 2.53 µM,0.236
same,relative viability,NCI-H838; first compound 8 µM,0.221
same,relative viability,PC-14; first compound 0.253 µM,0.14
same,relative viability,PC-14; first compound 0.8 µM,0.14
same,relative viability,PC-14; first compound 2.53 µM,0.0963
same,relative viability,PC-14; first compound 8 µM,0.063
same,relative viability,PC-3 [JPC-3]; first compound 0.253 µM,1.08
same,relative viability,PC-3 [JPC-3]; first compound 0.8 µM,1.04
same,relative viability,PC-3 [JPC-3]; first compound 2.53 µM,1.08
same,relative viability,PC-3 [JPC-3]; first compound 8 µM,0.985
same,relative viability,SK-LU-1; first compound 0.08 µM,1.05
same,relative viability,SK-LU-1; first compound 0.253 µM,0.991
same,relative viability,SK-LU-1; first compound 0.8 µM,0.897
same,relative viability,SK-LU-1; first compound 2.53 µM,0.853
same,relative viability,SK-LU-1; first compound 8 µM,0.817
